# Measurements published in paper PMC6815936, “A Pan-Cyclophilin Inhibitor, CRV431, Decreases Fibrosis and Tumor Development in Chronic Liver Disease Models” (The Journal of Pharmacology and Experimental Therapeutics, 2019).
# Where two headings read alike, the source gives them in different places. Square brackets hold non-standard residues; d marks the D form. Peptide text beside a SMILES is read from it. NMeThr(4R-Me,4-(CH2)6NHAc) = CN[C@H](C(=O)O)[C@H](O)[C@H](C)CCCCCCNC(C)=O; NMeL = CN[C@@H](CC(C)C)C(=O)O; NMeV = CN[C@H](C(=O)O)C(C)C; dNMeA = CN[C@H](C)C(=O)O; Abu = CC[C@H](N)C(=O)O
# Experiments:
# [1] = tested on: NFAT promoter luciferase reporter, Jurkat cells; experiment: NFAT luciferase reporter assay in Jurkat cells; assay type: cell-based, human; details: for IC50: 18 hours, read-out: NFAT–Luc IC50; for NFAT–Luc IC50 Fold Difference: CRV431 vs CsA
# Description: (§1) The luciferase reporter assays employed Jurkat cells stably transfected with gene constructs consisting of a luciferase gene plus human nuclear factor of activated T cells (NFAT) or interleukin-2 (IL-2) promoter elements (J1621 and J1651; Promega). The NFAT construct contained a DNA binding site only for NFAT, whereas the IL-2 construct contained binding sites for NFAT, nuclear factor κ-light-chain-enhancer of activated B cells, and activating protein-1 transcription factors. Cells were cultured in 96-well plates at 100,000 cells/well in RPMI 1640 medium (11875-093; Thermo Fisher) supplemented with 5% FBS (12483020; Thermo Fisher). Cells were activated either by precoating high protein-binding plates with 3 µg/ml anti-CD3 (UCHT clone) and anti-CD28 (CD28.2 clone) (BioLegend LEAF antibodies) or by adding phorbol myristate acetate (PMA; P8139; Sigma-Aldrich) to 15 ng/ml and A23187 ionophore (C7522; Sigma-Aldrich) to 0.75 µM. […] Cells were harvested after 18 hours of incubation, and luciferase was quantified with Promega Bio-Glo reagent (G7940; Promega) and measurement with a luminescence plate reader. Data were normalized to DMSO controls (100% stimulation) and to wells without antibody or PMA plus A23187 stimulation.
# [2] = tested on: Jurkat activation (NFAT and IL-2 luciferase reporters); experiment: Jurkat NFAT and IL-2 luciferase reporter assays taken together; assay type: cell-based, human
# Description: as §1
# [3] = tested on: human peripheral blood mononuclear cells; experiment: CFSE-PBMC proliferation; assay type: cell-based; details: highest tested concentration of 10 µM, 3 days
# Description: Peripheral blood mononuclear cells (PBMC) were isolated by Ficoll Paque Plus centrifugation (17144003; GE Life Sciences) of venous blood from a healthy human volunteer. Cells were incubated for 5 minutes with 5 µg/ml carboxyfluorescein diacetate succinimidyl ester (C1157; Thermo Fisher) to produce stable intracellular carboxyfluorescein succinimidyl ester (CFSE) labeling (CFSE-PBMC). […] Cells were collected after 3 days of culture incubation, and flow cytometry was used to measure the partitioning of CFSE into daughter cells arising from cell division (discrete cell populations with successively halved CFSE content). Daughter cells as a percentage of all CFSE-labeled cells were normalized to DMSO treatment (100% stimulation) and wells without CD3 antibody coating (nonstimulated).
# [4] = biological target: T1, NTCP (Homo sapiens, UniProt Q14973); experiment: Drug transporter inhibition, NTCP; assay type: in vitro ADME
# T1 construct: expressed in transfected cells
# Description: (§2) Briefly, PGP and breast cancer resistance protein inhibition was assessed by measuring the bidirectional transport of substrates across cell monolayers in transwell culture plates. Efflux ratios were represented as (apical-to-basal flux)/(basal-to-apical flux), and efflux ratios were plotted relative to CRV431 concentration to derive IC50 values. Bile salt export pump (BSEP) and multidrug resistance protein (MRP)1 inhibition was assessed by measuring substrate accumulation in membrane vesicles prepared from insect Sf9 cells and recombinantly expressing BSEP and MRP2 (Genomembrane). Inhibition of all other transporters was assessed by measuring substrate accumulation in cells recombinantly expressing the transporter. Known inhibitors of each transporter were used as positive controls for the assays. […] Specific, ATP-dependent uptake was determined by subtracting uptake in negative control vesicles and cells not expressing the transporters, and secondly by subtracting uptake in the absence of ATP in the assays. Specific, ATP-dependent uptake was plotted as a function of CRV431 concentrations and fitted to nonlinear regressions to obtain IC50 values.
# [5] = biological target: T2, MATE-2 (Homo sapiens, UniProt Q86VL8); experiment: Drug transporter inhibition, MATE-2; assay type: in vitro ADME; details: MATE-2, HEK293
# T2 construct: expressed in transfected cells
# Description: Inhibition of all other transporters was assessed by measuring substrate accumulation in cells recombinantly expressing the transporter. Known inhibitors of each transporter were used as positive controls for the assays. […] Specific, ATP-dependent uptake was determined by subtracting uptake in negative control vesicles and cells not expressing the transporters, and secondly by subtracting uptake in the absence of ATP in the assays. Specific, ATP-dependent uptake was plotted as a function of CRV431 concentrations and fitted to nonlinear regressions to obtain IC50 values.
# [6] = CRV431 concentrations in blood and liver, mice; assay type: in vivo, mouse; details: for Liver:Blood [CRV431] Ratio: Mouse
# Description: (§3) Male and female Sprague–Dawley rats and male C57BL/6 mice from the carbon tetrachloride and NASH studies were used to evaluate CRV431 pharmacokinetics and distribution. […] Terminal whole blood and livers were collected and frozen until drug extraction. Liver samples were homogenized in PBS or 1% formic acid (0.1 g–0.4 g liver sample per ml solvent) with bead-based homogenizers (TissueLyser or Beadruptor). […] Liver CRV431 concentrations were normalized to the masses of the liver samples.
# [7] = CRV431 concentrations in blood and liver, rats; assay type: in vivo; details: Rat
# Description: as §3
# [8] = tested on: NASH model in C57BL/6 mice; experiment: Mouse NASH model (streptozotocin plus high-fat diet); assay type: in vivo; design: NAS score / Steatosis score / Inflammation score / Ballooning score: scale not given here
# Description: NASH was initiated in 2-day-old C57BL/6J male mice by intraperitoneal injection with 200 μg streptozotocin (S0130; Sigma-Aldrich) to disrupt pancreatic β cells, induce diabetes, and promote adiposity in the liver. Mice were weaned at 3 weeks of age and begun on a high-fat diet with 60%kcal fat (D12492N; Research Diets) for the duration of the studies. Additionally, mice with a regular diet (D12450KN; Research Diets) and without streptozotocin were included as negative controls. CRV431 was dissolved in a self-microemulsifying drug vehicle and then diluted with PBS and administered daily by oral gavage at 50 mg/kg per day. The start time and duration of vehicle and CRV431 treatments varied depending on the study.
# Blood and livers were collected at the end of the NASH and CCl4 studies. In some studies, serum or plasma was isolated from freshly-collected blood, whereas in other studies blood was frozen for later analysis of CRV431 concentration. Livers were immersion-fixed in zinc-formalin and paraffin-embedded for histologic processing. Liver sections were stained with hematoxylin and eosin for assessment of inflammation, ballooning, and steatosis, and with sirius red for assessment of collagen I and III (fibrosis). Sirius red staining was quantified by blinded analysis in one section per liver using ImageJ software. Scoring of steatosis, ballooning, and inflammation (sum of portal and lobular inflammation) in liver sections was based on criteria and training by a board-certified pathologist.
# Liver tumors were quantified in freshly collected livers at sacrifice in one NASH study ending at 30 weeks of age. Liver tumors were counted and their diameters measured with a ruler and classified as small (>0.1 cm diameter, but not exceeding 0.5 cm), medium (0.5–1 cm diameter), or large (>1 cm diameter).
# [9] = biological target: P-gp (Homo sapiens, UniProt P08183)
# Description: as §2
# [10] = biological target: BCRP (Homo sapiens, UniProt Q9UNQ0)
# Description: as §2
# [11] = biological target: BSEP (Homo sapiens, UniProt O95342)
# Description: (§4) Bile salt export pump (BSEP) and multidrug resistance protein (MRP)1 inhibition was assessed by measuring substrate accumulation in membrane vesicles prepared from insect Sf9 cells and recombinantly expressing BSEP and MRP2 (Genomembrane). Inhibition of all other transporters was assessed by measuring substrate accumulation in cells recombinantly expressing the transporter. Known inhibitors of each transporter were used as positive controls for the assays. […] Specific, ATP-dependent uptake was determined by subtracting uptake in negative control vesicles and cells not expressing the transporters, and secondly by subtracting uptake in the absence of ATP in the assays. Specific, ATP-dependent uptake was plotted as a function of CRV431 concentrations and fitted to nonlinear regressions to obtain IC50 values.
# [12] = biological target: OATP1B1 (Homo sapiens, UniProt Q9Y6L6)
# Description: as §2
# [13] = biological target: OCT2 (Homo sapiens, UniProt O15244); experiment: Drug transporter inhibition, OCT2; details: OCT2, HEK293
# Description: as §4
# [14] = biological target: OAT3 (Homo sapiens, UniProt Q8TCC7); experiment: Drug transporter inhibition, OAT3; details: OAT3, HEK293
# Description: as §4
# [15] = Single oral dose pharmacokinetics in rats; details: single oral dose 10 mg/kg
# Description: Male and female Sprague–Dawley rats and male C57BL/6 mice from the carbon tetrachloride and NASH studies were used to evaluate CRV431 pharmacokinetics and distribution. […] Terminal whole blood and livers were collected and frozen until drug extraction. Liver samples were homogenized in PBS or 1% formic acid (0.1 g–0.4 g liver sample per ml solvent) with bead-based homogenizers (TissueLyser or Beadruptor). […] Sample and standard compounds were extracted from blood and liver homogenates using a zinc sulfate/methanol precipitation method and quantified by liquid chromatography–electrospray ionization–mass spectrometry, as previously described ([Trepanier et al., 2018]). Liver CRV431 concentrations were normalized to the masses of the liver samples.
# CRV431 pharmacokinetics in rats. […] Whole–blood concentrations of the two compounds were determined at the indicated time points. […] Means and S.D. shown.
# [16] = mouse, in vivo, po, 50 mg/kg/day
# [17] = Week 3–14 Treatment, 50 mg/kg per day oral
# [18] = Week 8–14 Treatment, 50 mg/kg per day oral
# [19] = Week 20–30 Treatment, 50 mg/kg per day oral
# Sequence of OAT3 (Q8TCC7 whole entry): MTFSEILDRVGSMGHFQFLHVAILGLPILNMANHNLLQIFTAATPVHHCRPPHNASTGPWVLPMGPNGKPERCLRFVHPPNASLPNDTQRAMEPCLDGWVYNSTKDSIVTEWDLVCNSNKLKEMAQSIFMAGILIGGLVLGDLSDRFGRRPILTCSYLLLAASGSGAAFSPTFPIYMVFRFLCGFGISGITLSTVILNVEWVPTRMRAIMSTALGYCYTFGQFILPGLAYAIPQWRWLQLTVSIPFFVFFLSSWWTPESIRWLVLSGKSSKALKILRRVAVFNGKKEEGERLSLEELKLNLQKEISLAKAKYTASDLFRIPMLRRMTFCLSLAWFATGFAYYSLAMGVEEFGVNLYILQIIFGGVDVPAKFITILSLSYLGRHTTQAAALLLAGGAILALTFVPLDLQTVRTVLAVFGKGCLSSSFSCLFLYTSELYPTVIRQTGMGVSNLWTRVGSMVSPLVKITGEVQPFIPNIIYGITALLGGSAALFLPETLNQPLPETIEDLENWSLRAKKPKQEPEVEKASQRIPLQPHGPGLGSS
# T1 sequence (Q14973 whole entry): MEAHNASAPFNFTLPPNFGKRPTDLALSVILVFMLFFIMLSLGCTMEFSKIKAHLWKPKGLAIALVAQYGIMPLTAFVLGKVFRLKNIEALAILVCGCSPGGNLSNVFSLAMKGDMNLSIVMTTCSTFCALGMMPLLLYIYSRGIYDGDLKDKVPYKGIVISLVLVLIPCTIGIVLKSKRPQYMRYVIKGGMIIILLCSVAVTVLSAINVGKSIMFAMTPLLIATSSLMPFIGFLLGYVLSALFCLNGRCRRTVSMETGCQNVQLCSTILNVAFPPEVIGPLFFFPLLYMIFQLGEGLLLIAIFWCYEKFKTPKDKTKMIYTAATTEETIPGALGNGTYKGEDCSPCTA
# Sequence of OCT2 (O15244 whole entry): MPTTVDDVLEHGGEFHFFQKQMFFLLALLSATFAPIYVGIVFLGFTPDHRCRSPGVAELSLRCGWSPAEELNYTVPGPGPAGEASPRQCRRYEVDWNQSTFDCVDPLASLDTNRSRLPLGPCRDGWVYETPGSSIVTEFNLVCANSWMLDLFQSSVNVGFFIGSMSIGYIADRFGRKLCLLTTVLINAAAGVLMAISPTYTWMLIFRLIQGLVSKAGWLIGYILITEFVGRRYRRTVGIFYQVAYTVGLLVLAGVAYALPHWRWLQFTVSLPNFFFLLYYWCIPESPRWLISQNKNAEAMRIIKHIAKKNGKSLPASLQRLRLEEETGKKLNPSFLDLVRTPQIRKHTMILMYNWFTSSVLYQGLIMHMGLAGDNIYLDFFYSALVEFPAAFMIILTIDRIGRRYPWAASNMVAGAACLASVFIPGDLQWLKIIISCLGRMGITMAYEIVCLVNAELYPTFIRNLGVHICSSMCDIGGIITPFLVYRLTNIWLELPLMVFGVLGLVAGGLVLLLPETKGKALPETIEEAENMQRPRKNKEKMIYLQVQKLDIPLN
# T2 sequence (Q86VL8 whole entry): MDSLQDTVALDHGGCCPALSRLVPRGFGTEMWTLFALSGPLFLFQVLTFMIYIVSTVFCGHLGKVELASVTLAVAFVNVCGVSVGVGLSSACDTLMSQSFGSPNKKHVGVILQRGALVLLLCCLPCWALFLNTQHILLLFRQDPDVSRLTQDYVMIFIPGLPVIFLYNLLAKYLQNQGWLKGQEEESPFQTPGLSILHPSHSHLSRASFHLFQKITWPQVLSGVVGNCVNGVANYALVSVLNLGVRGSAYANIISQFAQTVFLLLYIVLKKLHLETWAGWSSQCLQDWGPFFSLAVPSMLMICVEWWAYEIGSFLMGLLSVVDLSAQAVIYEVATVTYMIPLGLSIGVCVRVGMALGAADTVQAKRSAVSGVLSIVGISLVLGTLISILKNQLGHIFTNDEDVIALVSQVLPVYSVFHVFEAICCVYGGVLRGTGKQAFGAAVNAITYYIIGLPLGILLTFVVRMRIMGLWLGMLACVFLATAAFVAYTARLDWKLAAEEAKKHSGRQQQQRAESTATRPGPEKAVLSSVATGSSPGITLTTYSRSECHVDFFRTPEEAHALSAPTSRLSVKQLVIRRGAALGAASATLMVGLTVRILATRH
# Sequence of BCRP (Q9UNQ0 whole entry): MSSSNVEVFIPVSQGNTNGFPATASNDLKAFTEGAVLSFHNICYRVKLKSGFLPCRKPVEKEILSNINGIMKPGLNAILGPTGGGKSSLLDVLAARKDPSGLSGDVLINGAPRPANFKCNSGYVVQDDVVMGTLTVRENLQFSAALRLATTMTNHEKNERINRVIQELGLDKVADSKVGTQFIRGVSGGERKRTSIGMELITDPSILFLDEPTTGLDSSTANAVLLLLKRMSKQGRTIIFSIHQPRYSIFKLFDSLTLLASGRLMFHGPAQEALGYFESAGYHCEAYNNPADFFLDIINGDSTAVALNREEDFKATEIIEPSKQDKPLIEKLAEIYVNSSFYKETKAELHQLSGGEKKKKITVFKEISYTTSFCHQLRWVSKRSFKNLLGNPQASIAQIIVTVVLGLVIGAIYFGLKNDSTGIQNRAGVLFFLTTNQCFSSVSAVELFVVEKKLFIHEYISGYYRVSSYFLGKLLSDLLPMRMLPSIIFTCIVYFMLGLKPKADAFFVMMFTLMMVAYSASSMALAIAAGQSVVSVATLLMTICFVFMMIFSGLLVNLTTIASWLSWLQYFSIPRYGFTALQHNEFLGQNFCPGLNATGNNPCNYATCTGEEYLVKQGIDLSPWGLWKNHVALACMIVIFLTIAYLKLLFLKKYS
# Sequence of BSEP (O95342 whole entry): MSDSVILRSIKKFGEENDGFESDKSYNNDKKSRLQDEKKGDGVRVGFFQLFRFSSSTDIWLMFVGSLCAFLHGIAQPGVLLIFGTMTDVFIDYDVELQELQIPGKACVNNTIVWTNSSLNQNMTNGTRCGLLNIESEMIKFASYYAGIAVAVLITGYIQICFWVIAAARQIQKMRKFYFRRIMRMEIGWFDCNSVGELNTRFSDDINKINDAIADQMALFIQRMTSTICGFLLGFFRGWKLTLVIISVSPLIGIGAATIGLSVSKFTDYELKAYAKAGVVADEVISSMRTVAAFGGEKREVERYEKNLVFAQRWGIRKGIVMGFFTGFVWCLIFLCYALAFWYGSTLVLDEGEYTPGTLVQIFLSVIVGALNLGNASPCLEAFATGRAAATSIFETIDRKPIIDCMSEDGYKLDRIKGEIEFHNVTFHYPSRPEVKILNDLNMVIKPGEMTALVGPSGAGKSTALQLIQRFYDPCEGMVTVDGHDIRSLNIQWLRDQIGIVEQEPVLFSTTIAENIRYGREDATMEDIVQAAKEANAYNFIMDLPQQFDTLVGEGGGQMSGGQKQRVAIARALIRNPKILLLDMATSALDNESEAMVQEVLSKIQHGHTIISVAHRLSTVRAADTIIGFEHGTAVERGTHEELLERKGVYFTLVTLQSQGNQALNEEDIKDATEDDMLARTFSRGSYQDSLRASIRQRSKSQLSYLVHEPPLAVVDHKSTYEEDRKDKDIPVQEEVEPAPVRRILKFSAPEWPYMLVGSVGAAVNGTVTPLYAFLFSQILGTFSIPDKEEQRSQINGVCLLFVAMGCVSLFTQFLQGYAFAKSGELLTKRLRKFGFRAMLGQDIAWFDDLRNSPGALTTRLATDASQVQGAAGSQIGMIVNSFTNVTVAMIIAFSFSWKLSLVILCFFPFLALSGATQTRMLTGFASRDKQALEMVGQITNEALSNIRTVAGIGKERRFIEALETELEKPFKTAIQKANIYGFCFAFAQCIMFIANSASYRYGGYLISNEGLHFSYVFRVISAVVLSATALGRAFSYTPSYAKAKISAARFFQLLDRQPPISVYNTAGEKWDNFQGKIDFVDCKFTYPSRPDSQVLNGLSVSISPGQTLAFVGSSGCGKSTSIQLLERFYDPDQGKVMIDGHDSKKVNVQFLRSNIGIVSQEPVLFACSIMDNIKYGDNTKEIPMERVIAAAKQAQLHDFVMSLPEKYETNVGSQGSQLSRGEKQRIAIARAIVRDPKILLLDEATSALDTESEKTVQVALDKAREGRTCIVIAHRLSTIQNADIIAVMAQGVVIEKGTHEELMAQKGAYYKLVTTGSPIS
# Sequence of OATP1B1 (Q9Y6L6 whole entry): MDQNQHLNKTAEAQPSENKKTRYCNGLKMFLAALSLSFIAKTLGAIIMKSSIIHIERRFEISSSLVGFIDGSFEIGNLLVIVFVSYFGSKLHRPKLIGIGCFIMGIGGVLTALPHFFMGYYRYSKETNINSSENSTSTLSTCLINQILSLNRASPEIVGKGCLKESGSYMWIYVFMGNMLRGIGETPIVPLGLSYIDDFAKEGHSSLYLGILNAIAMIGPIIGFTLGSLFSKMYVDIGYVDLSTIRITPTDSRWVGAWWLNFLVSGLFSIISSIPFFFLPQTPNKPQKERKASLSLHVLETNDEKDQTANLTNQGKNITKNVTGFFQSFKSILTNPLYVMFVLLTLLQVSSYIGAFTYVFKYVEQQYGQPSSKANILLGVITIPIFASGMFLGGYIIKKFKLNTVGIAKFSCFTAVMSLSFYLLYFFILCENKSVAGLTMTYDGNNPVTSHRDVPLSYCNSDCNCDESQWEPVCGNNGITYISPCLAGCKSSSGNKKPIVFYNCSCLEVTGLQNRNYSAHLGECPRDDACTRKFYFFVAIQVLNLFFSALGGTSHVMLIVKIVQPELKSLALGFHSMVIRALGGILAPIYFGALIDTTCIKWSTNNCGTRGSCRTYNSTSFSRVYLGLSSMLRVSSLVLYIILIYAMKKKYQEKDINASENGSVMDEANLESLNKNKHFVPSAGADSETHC
structure (smiles),measurement,setting,value
"CC[C@@H]1NC(=O)[C@H]([C@H](O)[C@H](C)CCCCCCNC(C)=O)N(C)C(=O)[C@H](C(C)C)N(C)C(=O)[C@H](CC(C)C)N(C)C(=O)[C@H](CC(C)C)N(C)C(=O)[C@@H](C)NC(=O)[C@H](C)NC(=O)[C@H](CC(C)C)N(C)C(=O)[C@H](C(C)C)NC(=O)[C@H](CC(C)C)N(C)C(=O)[C@@H](C)N(C)C1=O [CRV431] (cyclo(A[dA][NMeL][NMeL][NMeV][NMeThr(4R-Me,4-(CH2)6NHAc)][Abu][dNMeA][NMeL]V[NMeL]))",IC50,[1]; CD3 + CD28 antibodies stimulation,0.292 µM
same,NFAT–Luc IC50 Fold Difference,[1]; CD3 + CD28 antibodies,65.4
same,NFAT–Luc IC50 Fold Difference,[1]; PMA + A23187,60.2
same,IC50,[1]; PMA + A23187 stimulation,0.205 µM
same,times less potent than CsA on Jurkat–NFAT cells,[1]; ratio of CRV431 and CsA IC50,~63 times
same,suppression of Jurkat activation,[2]; CRV431 tested up to 20 µM,not able to completely suppress activation
same,immunosuppression potency relative to CsA levels,[2]; from the multiple in vitro immunosuppression assays,≤ 3%
same,IC50,"[2]; range over both reporter lines and both stimulations, nonlinear regression, read-out: IC50 values, Jurkat activation",0.205 to 0.311 µM
same,IC50,"[2]; read-out: estimates of 50% inhibition derived directly from the graphs, range over Jurkat reporter assays",0.34 to 0.5 µM
same,inhibition of proliferation,[3],40%
same,fold lower activity than CsA toward sodium-dependent taurocholic acid cotransporting polypeptide,[4],45 fold
same,IC50,"[4]; NTCP, HEK293",45.3 µM
same,CRV431 Inhibitory Potency vs. CsA,[5],Same (no inhibition)
same,Liver:Blood [CRV431] Ratio,"[6]; CCl4, 50 mg/kg per day oral, day 42, 4 hours post-dose",15.4 ± 10.4
same,Liver:Blood [CRV431] Ratio,"[6]; NASH, 50 mg/kg per day oral, day 189, 3 hours post-dose",11.9 ± 8.5
same,peak blood levels at which CRV431 efficacy occurred in mice,"[6]; mouse, in vivo",1.2 to 1.4 µg/mL
same,Blood,[6]; [16],1.4 ± 1.5 µg/mL
same,Liver,[6]; [16],11.6 ± 9.0 µg/g
same,Liver:Blood [CRV431] Ratio,"[7]; 30 mg/kg per day oral, day 7, 12 hours post-dose",6.6 ± 1.1
same,Liver:Blood [CRV431] Ratio,"[7]; 30 mg/kg per day oral, day 7, 24 hours post-dose",4.8 ± 1.1
same,Liver:Blood [CRV431] Ratio,"[7]; 250 mg/kg per day oral, day 7, 12 hours post-dose",7.6 ± 1.8
same,Liver:Blood [CRV431] Ratio,"[7]; 250 mg/kg per day oral, day 7, 24 hours post-dose",5.3 ± 0.6
same,Ballooning score,[8]; [17],0.9 ± 0.6
same,Blood glucose,[8]; [17],319 ± 79
same,Body weight,[8]; [17],33.5 ± 5.2 (P < 0.05)
same,Inflammation score,[8]; [17],1.5 ± 0.7
same,Liver weight,[8]; [17],1.28 ± 0.28
same,NAS score,[8]; [17],3.7 ± 2.2 (P < 0.05)
same,Sirius red %,[8]; [17],1.96 ± 0.72 (P < 0.05) %
same,Steatosis score,[8]; [17],1.3 ± 1.1
same,Ballooning score,[8]; [18],1.8 ± 0.5
same,Blood glucose,[8]; [18],463 ± 143
same,Body weight,[8]; [18],26.1 ± 5.1
same,Inflammation score,[8]; [18],2.4 ± 0.7
same,Liver weight,[8]; [18],1.35 ± 0.28
same,NAS score,[8]; [18],6.1 ± 1.1
same,Sirius red %,[8]; [18],1.02 ± 0.48 (P < 0.05) %
same,Steatosis score,[8]; [18],2.0 ± 0.5
same,Blood glucose,[8]; [19],405 ± 134
same,Body weight,[8]; [19],41.6 ± 8.9
same,Liver weight,[8]; [19],3.04 ± 1.19 (P < 0.05)
same,Sirius red %,[8]; [19],1.62 ± 0.57 (P < 0.05) %
same,Tumor number,[8]; [19],4.5 ± 4.4
same,Tumor score,"[8]; Week 20–30 Treatment, 50 mg/kg per day oral, 0–7 scale",2.25 ± 2.0 (P < 0.05)
same,reduction in the number and size of liver tumors,"[8]; late, oncogenic stage of the NASH model (abstract)",50%
same,fibrosis levels lower after CRV431 treatment compared with vehicle treatment,"[8]; three NASH model studies, 50 mg/kg per day oral, sirius red",37%–46%
same,livers lacking tumors,[8]; treatment from weeks 20 to 30,2 of 10
same,decrease of tumor burden (score of tumor number and size),"[8]; treatment from weeks 20 to 30, vs vehicle",52%
same,IC50,[9],> 50 µM
same,IC50,[10],23 µM
same,IC50,[11],1.42 µM
same,IC50,[12],0.3 µM
same,CRV431 Inhibitory Potency vs. CsA,[13],Same (no inhibition)
same,IC50,[13],> 50 µM
same,CRV431 Inhibitory Potency vs. CsA,[14],>21× more
same,IC50,[14],0.473 µM
same,"clearance fold difference, CRV431 vs CsA",[15],3.5 fold
